Test: Stability of NTI164 in oil at room temperature (UPLC, weekly assay, CBDA as marker)

Row | SMILES | Cannabinoid concentration in NTI164 (sample 28206-7) (Day 0 (13 Jul. 2021)) [mg/mL] | Cannabinoid concentration in NTI164 (sample 28206-7) (Day 2 (15 Jul. 2021)) [mg/mL] | Cannabinoid concentration in NTI164 (sample 28206-7) (Day 7 (20 Jul. 2021)) [mg/mL] | Cannabinoid concentration in NTI164 (sample 28206-7) (Day 14 (29 Jul. 2021)) [mg/mL] | Cannabinoid concentration in NTI164 (sample 28206-7) (Day 28 (12 Aug. 2021)) [mg/mL] | Cannabinoid concentration in NTI164 (sample 28206-7) (Week 5 (19 Aug. 2021)) [mg/mL] | Cannabinoid concentration in NTI164 (sample 28206-7) (Week 6 (27 Aug. 2021)) [mg/mL] | Cannabinoid concentration in NTI164 (sample 28206-7) (Week 32 (12 Sep. 2022)) [mg/mL]
1 | CCCCCc1cc(O)c(C/C=C(\C)CCC=C(C)C)c(O)c1 [Cannabigerol (CBG), Cannabigerol] | 5.21 | 5.23 | 5.14 | 5.1 | 5.1 | 5.30 | 5.28 | 5.12
2 | CCCCCc1cc(O)c(C/C=C(\C)CCC=C(C)C)c(O)c1C(=O)O [Cannabigerol Acid(CBG-A), Cannabigerol Acid] | 1.07 | 1.18 | 1.20 | 1.19 | 0.81 | 1.08 | 1.00 | 1.05
3 | CCCCCc1cc(O)c2c(c1)OC(C)(C)c1ccc(C)cc1-2 [Cannabinol (CBN), Cannabinol] | 2.32 | 2.54 | 2.48 | 2.33 | 2.56 | 2.22 | 2.27 | 2.21
4 | CCCCCc1cc(O)c2c(c1)OC(C)(C)[C@@H]1CC=C(C)C[C@@H]21 [DELTA-8-THC (D8-THC), DELTA-8-THC] | <0.1 | <0.1 | <0.1 | <0.1 | <0.1 | <0.1 | <0.1 | <0.1
5 | CCCCCc1cc(O)c2c(c1)OC(C)(C)[C@@H]1CCC(C)=C[C@@H]21 [Tetrahydrocannabinol (D9-THC), Tetrahydrocannabinol] | <0.1 | <0.1 | <0.1 | <0.1 | <0.1 | 0.14 | <0.1 | 0.11
6 | CCCc1cc(O)c2c(c1)OC(C)(C)[C@@H]1CCC(C)=C[C@@H]21 [Tetrahydrocannabivarin (THCV), Tetrahydrocannabivarin] | <0.1 | <0.1 | <0.1 | <0.1 | <0.1 | <0.1 | <0.1 | <0.1
